Laboratory results reported in patent publication US20240285566A1, “SUBCUTANEOUS FORMULATION AND METHODS FOR TREATING EDEMA REFRACTORY TO ORAL DIURETICS” (RESQ Pharmaceuticals LLC, priority 2021, published 2024).

Experiments:
[1] = Solubility of bumetanide free acid in water with and without tetradecyl-β-D-maltoside (HPLC); assay type: physicochemical
Experimental: Bumetanide, 10 mg, in its free acid form was added to 1 mL of deionized water and mixed using a vortex and sonicator. The solution was filtered using a 0.22 μm nylon syringe filter. To 900 μL deionized water, 100 μL of the filtered bumetanide solution was added before being characterized for the concentration of the bumetanide in solution using HPLC. The concentration of bumetanide was determined using a standard curve generated by bumetanide solutions of known concentrations. […] Therefore, to the 10 mg of bumetanide, 1 mL of deionized water containing 1.0%, 0.5% or 0.1% of the surfactant tetradecyl-β-D-maltoside. The bumetanide was then solubilized using a vortex and sonicator, after which it was filtered using a 0.22 μm nylon syringe filter. To 900 μL deionized water, 100 μL of the filtered bumetanide solution was added before being characterized for the concentration of the bumetanide in solution using HPLC. The resulting bumetanide concentrations are recorded in Table 1.

in vivo = test: in vivo; set-up: species or system beagle dogs; details: dog
Experimental: The purpose of this study was to assess the pharmacokinetic profiles of various formulations of bumetanide, including arginine bumetanide salts (FS-5 and FS-6) and potassium bumetanide salts (FS-3 and FS-4) for subcutaneous administration, and an bumetanide intranasal formulation (F82), which are described in Table 60, when each formulation is administered as a single subcutaneous, or intranasal in different vehicles when compared to single IV administration dose in male and female beagle dogs.
A total of four dogs were assigned to the study (3 males, 9-13 kg and 1 female, 7-10 kg) ranging from 1 to 3 years old.
The study was conducted in 6 Events in the same animals, separated by at least 48 hours or more washout period between events.
For subcutaneous administration the bumetanide formulations were injected subcutaneously (100 μL/dog), using a 25G hypodermic needle. After each application, successful dosing was verified by visual inspection of the dog injection site and after 1 minute of dosing. Only successful administrations will be accepted.
For intranasal administration, each dog was held in an upright position with the nose pointing up. The test article (50 μL) was delivered into each nostril (total 100 μL/dog). The nose was held pointing up for ˜60 seconds after dosing. After each application, successful dosing was verified by visual inspection of the pipette tip and the dog nostril.
For intravenous administration, the commercially available injection of bumetanide (Walgreens, 0.25 mg/mL) was used and administered via the cephalic vein over a period of 30 seconds (4.0 mL/dog, IV).
Body weights of the dogs were measured for each dog prior to each dose on the day of dose, and approximately 48 hours post-dose for each event. For some events, the 48 hour post-dose weight was the same weight as the pre-dose weight for the following dose. Urine production was also monitored post-dose to assess diuresis by making observations at 30 minutes, 1, 2, 3 and 4 hours post-dose. Urine volume was not measured. On each day of dosing, blood (˜600 μL/timepoint, jugular or cephalic vein) were collected in red top tubes with clotting activator (Sarstedt, Inc-41.1392.105 or similar) to obtain serum at the times described in Table 61. Blood was centrifuged at 5000×g for 10 minutes at 4° C. If the samples were collected outside the collection window, they were not be considered a protocol deviation. Serum was divided into 2 aliquots of ˜150 μL each and stored frozen at −20° C. until it was shipped to Climax Laboratories, Inc. on dry ice.

[2] = Stability of arginine and potassium bumetanide salts over four weeks; assay type: physicochemical; details: for stability of the salt solution: at either 5° C. or 25° C.
Experimental: The stability of the arginine and potassium bumetanide salts was monitored over a four week period with storage at either 2-8° C. or 25° C. for that time period. The bumetanide salt solutions were evaluated on the basis of pH, concentration of bumetanide in solution, the percent assay recovery and the presence of an impurity (see Tables 17 and 18).

Row | Structure (SMILES) | Assay ([2]; 1 week at 5° C.) [mg/mL] | pH ([2]; 1 week at 5° C.) | Assay ([2]; 1 week at 25° C.) [mg/mL] | pH ([2]; 1 week at 25° C.) | Assay ([2]; 2 weeks at 5° C.) [mg/mL] | pH ([2]; 2 weeks at 5° C.) | Assay ([2]; 2 weeks at 25° C.) [mg/mL] | pH ([2]; 2 weeks at 25° C.) | Assay ([2]; 4 weeks at 5° C.) [mg/mL] | pH ([2]; 4 weeks at 5° C.) | Assay ([2]; 4 weeks at 25° C.) [mg/mL] | pH ([2]; 4 weeks at 25° C.) | Assay ([2]; T0) [mg/mL] | Osmolality ([2]; T0) [mOsm/kg] | Viscosity ([2]; T0) [cP] | pH ([2]; T0) | stability of the salt solution [2] | other results
1 | CCCCNc1cc(C(=O)O)cc(S(N)(=O)=O)c1Oc1ccccc1 [Bumetanide] | – | – | – | – | – | – | – | – | – | – | – | – | – | – | – | – | – | solubility in water ([1]; free acid form, deionized water, no surfactant): Nearly no bumetanide in the free acid form was soluble water; solubility in water ([1]; not in a salt form, in the presence of surfactant): incredibly low solubility in water; AUC (in vivo; beagle, iv, 1 mg): 140 ng·h/mL; AUC (in vivo; beagle, iv, 1 mg, AUC (ng*h/mL)): 140 ng·h/mL; AUC (in vivo; both sexes, beagle, iv, 1 mg): 185 ng·h/mL; AUC(0-t) (in vivo; both sexes, beagle, iv, 1 mg): 185 ng·h/mL; AUC (in vivo; both sexes, beagle, iv, 1 mg, AUC (ng*h/mL)): 185 ng·h/mL
2 | CCCCNc1cc(C(=O)O)cc(S(N)(=O)=O)c1Oc1ccccc1.N=C(N)NCCCC(N)C(=O)O [arginine bumetanide salt] | 5.08 | 7.0 | 5.06 | 7.1 | 4.99 | 7.0 | 4.97 | 7.0 | 4.89 | 7.0 | 4.97 | 7.1 | 5.07 | 335 | 1.3 | 7.0 | stable for up to four weeks | impurity by HPLC ([2]; initially or after four weeks, 5° C. and 25° C.): no impurity was detected
3 | CCCCNc1cc(C(=O)[O-])cc(S(N)(=O)=O)c1Oc1ccccc1.[K+] [potassium bumetanide salt] | 5.18 | 7.0 | 5.10 | 7.0 | 4.97 | 7.0 | 4.96 | 7.1 | 5.00 | 7.0 | 5.03 | 7.1 | 5.10 | 317 | 1.3 | 7.0 | stable for up to four weeks | serum concentrations compared to IV administration of bumetanide (in vivo): higher serum concentrations
